Counter-ions that a name gives are not always drawn.

T1 sequence (Q9BUB5 whole entry): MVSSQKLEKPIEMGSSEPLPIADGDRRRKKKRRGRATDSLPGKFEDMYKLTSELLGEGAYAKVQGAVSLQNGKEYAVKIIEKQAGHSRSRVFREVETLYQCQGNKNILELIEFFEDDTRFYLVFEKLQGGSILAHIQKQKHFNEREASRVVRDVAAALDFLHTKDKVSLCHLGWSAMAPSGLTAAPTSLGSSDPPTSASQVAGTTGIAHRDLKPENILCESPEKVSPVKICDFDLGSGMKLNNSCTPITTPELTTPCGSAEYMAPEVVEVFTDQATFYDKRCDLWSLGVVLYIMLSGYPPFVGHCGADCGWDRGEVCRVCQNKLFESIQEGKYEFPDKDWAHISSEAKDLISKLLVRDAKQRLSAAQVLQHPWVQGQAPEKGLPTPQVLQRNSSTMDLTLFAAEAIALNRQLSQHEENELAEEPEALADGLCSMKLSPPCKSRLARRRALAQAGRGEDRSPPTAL

One assay addresses T1, MNK1 (Homo sapiens, UniProt Q9BUB5).
T1 construct: purchased Life Technologies or Carna Biosciences PV6023 or 02-145; host or cells: baculovirus infected insect cells
Put plainly: MNK inhibition assay (Z-Lyte kinase assay, Ser/Thr 7 peptide). As to conditions: at 1 μM; read-out: Inhibition of MNK1 activity at indicated concentration. In kind it is biochemical. An excerpt:
For the measurement of the activity of the MNK1 kinase the Z-Lyte kinase assay system was used. The kinase activity of MNK1 can be quantified with the Z-Lyte kinase assay kit Ser/Thr 7 peptide (Life Technologies PV3180). The kit was utilized according to the instructions of the provider. A recombinant GST-MNK1 fusion protein produced in and purified from baculovirus infected insect cells was used as enzyme source (GST-MNK1 Life Technologies PV6023 or Carna Biosciences 02-145). It was verified that both sources of the MNK1 enzyme gave similar IC50 values with several compounds. The MNK1 enzyme assay was performed in 384 well round bottom black microtiter plates (Corning 3676). The kinase reaction was performed for 3 hours at 31° C. As instructed by the provider of the kit the amount of enzyme was chosen such that ˜30% of the substrate peptide was phosphorylated in control wells containing buffer only. The MNK1 inhibiting activity of compounds was tested by adding the compounds to the kinase reaction at a concentration of 10000, 5000, 2000, 1000, 500, 200, 100, 50 nM. Compounds with strong MNK1 inhibition were tested at 20, 10, 5, 2, 1 and 0.5 nM in addition. Each compound concentration was tested at least in duplicate. The % phosphorylation of the substrate peptide at each compound concentration was calculated as described in the assay manual. The fluorescent signals were recordes on Biotek Cytation 3 microplate reader. The IC50, the concentration that reduced substrate phosphorylation by 50% if compared to buffer only wells, was calculated with the Grafit 6 software (Erythacus software).
Regarding `NC1CCN(Cc2ccc3cncc(-c4ccc(C(=O)O)cc4)c3c2)CC1` [Example 29, 4-[6-[(4-Amino-1-piperidyl)methyl]-4-isoquinolyl]benzoic acid], the inhibition at 1 µM turned out to be 43%.

Turning to `NC1CCN(Cc2ccc3cncc(-c4cccc(C(=O)O)c4)c3c2)CC1` [Example 30], the inhibition at 1 µM came to 34%.

Staying with this assay, now noted: at 10 μM; read-out: Inhibition of MNK1 activity at indicated concentration.
As to `N#Cc1ccccc1-c1cncc2ccc(CN3CCC(N)CC3)cc12` [Example 8], the inhibition at 10 µM was found to be 95%.

Turning to `O=c1[nH]cc(-c2cc3ccccc3o2)c2cc(NCc3ccncc3)ccc12` [Example 89, 4-(Benzofuran-2-yl)-6-(4-pyridylmethylamino)-2H-isoquinolin-1-one], the inhibition at 10 µM came out at 35%.

The assay is the same for the next values; noted with them: recombinant GST-MNK1, 3 hours at 31° C.
As a reminder, the IC50 is the concentration needed to halve the response being measured. Consider `NC1CCN(Cc2ccc3cncc(-c4ccccn4)c3c2)CC1` [Example 15], for which the IC50 was found to be 3960 nM.

Regarding `NC(=O)Nc1ccc(-c2cncc3ccc(CN4CCC(N)CC4)cc23)cc1` [Example 33, [4-[6-[(4-Amino-1-piperidyl)methyl]-4-isoquinolyl]phenyl]urea], the IC50 came to 866 nM.

For the compound `NC(=O)Nc1cccc(-c2cncc3ccc(CN4CCC(N)CC4)cc23)c1` [Example 34], the IC50 worked out at 1090 nM.

Turning to `Oc1ccc(-c2cncc3ccc(CNC4CCCNC4)cc23)cc1` (centres unmarked) [Example 39], the IC50 is 496 nM.

Consider `c1cncc(NCc2ccc3cncc(-c4cc5ccccc5o4)c3c2)c1` [Example 60, N-[[4-(Benzofuran-2-yl)-6-isoquinolyl]methyl]pyridin-3-amine], for which the IC50 was determined as 135 nM.

As to `Clc1cc(NCc2ccc3cncc(-c4cc5ccccc5o4)c3c2)ccn1` [Example 62], the IC50 is 2140 nM.

Take `Fc1cc(NCc2ccc3cncc(-c4cc5ccccc5o4)c3c2)ccn1` [Example 63]: the 50% inhibitory concentration (IC50) was found to be 68 nM.

As to `COc1cc(NCc2ccc3cncc(-c4cc5ccccc5o4)c3c2)ccn1` [Example 65], the IC50 came to 157 nM.

With `N[C@H]1CC[C@H](Nc2ccc3c(=O)[nH]cc(-c4ccccc4)c3c2)CC1` [Example 88], the IC50 came to 171 nM.

As for `O=c1[nH]cc(-c2ccccc2)c2cc(NCc3ccncc3)ccc12` [Example 90], the IC50 was 1060 nM.

Regarding `c1ccc2oc(-c3cncc4ccc(CNc5ccnnc5)cc34)cc2c1` [Example 131, N-[[4-(benzofuran-2-yl)-6-isoquinolyl]methyl]pyridazin-4-amine], the IC50 worked out at 24 nM.

For `Nc1cc[n+](Cc2ccc3cnc(N)c(-c4cc5ccccc5o4)c3c2)cc1` [Example 166, 6-[(4-Aminopyridin-1-ium-1-yl)methyl]-4-(benzofuran-2-yl)isoquinolin-3-amine trifluoroacetate], the IC50 was 57 nM.

As for `Nc1ncc(-c2cc3ccccc3o2)c2cc(O[C@H]3CC[C@H](N)CC3)cc(Cl)c12` [Example 320], the IC50 was found to be 94 nM.

Source of the values: patent publication US20200031811A1, “SUBSTITUTED MONO- AND POLYAZANAPHTHALENE DERIVATIVES AND THEIR USE” (Basilea Pharmaceutica International AG, priority 2015, published 2020).
